Data taken from article PMC8822458, “Synthesis and bioactivity of pyrrole-conjugated phosphopeptides” (Beilstein Journal of Organic Chemistry, 2022).
Like-named read-outs stand apart in the source and are kept apart here. *1 amine or outer side, *2 acyl side, *3 side chain or, on linkers, in order; H or OH if unused. Where a SMILES comes first, the peptide text is derived from it. [ ]: non-standard residue; d: D form. The star is where a group is joined. d(pY) = N[C@H](Cc1ccc(OP(=O)(O)O)cc1)C(=O)O; pY = N[C@@H](Cc1ccc(OP(=O)(O)O)cc1)C(=O)O; d(pS) = N[C@H](COP(=O)(O)O)C(=O)O; Guanidinoacetyl = N=C(N)NCC(=O)*; X2 = Cn1cc(N[*:1])cc1C(=O)[*:2]; X1 = Cn1cc(N)cc1C(=O)*

Assays:
HeLa cells = assay: MTT cell viability of HeLa cells
Method: We examined the cytotoxicity of the synthesized compounds by incubating them with HeLa cells because HeLa cells overexpress ALP and are widely available. By incubating 200 μM of each compound with HeLa cells for 24 hours, we employed MTT assay to determine the cell viability of the HeLa cells. […]
S3. Cel l culture and cell viability
HeLa cell line was purchased from American Type Culture Collection (ATCC, Manassas, VA, USA). HeLa cells were cultured in MEM medium with 100 U mL-1 penicillin and 100 μg mL-1 streptomycin. Cells were cultured at 37 °C in a humidified atmosphere of 5% CO 2.
MTT assay was used to determine the cytotoxicity of the compounds against HeLa cells.
Cells were seeded in 96-well plate at 1.0 × 10^5 cells/well for 24 hours followed by culture medium removal. Fresh culture medium containing different concentrations of compounds were then added. After incubated at 37 °C for 24/48/72 hours, the culture medium with compounds were replaced by fresh culture m edium plus 10 μL of MTT solution (5 mg/mL). After incubated at 37 °C for another 4 hours, 100 μL of SDS-HCl solution was added to stop the reduction and dissolve formazan formed. A DTX880 […]
Multimode Detector was used to measure the absorbance of each well at 595 nm, and cell viability was calculated as percentage relative to untreated cells. Data were […]

[1] = TEM morphology of peptide assemblies before and after ALP; format: physicochemical; conditions: 400 μM and 200 μM, PBS buffer pH 7.4
Description: Figure 3 A) TEM images of 1 before and after addition of ALP (0.5 U/mL) in PBS buffer (pH 7.4). Scale bar is 100 nm. Figure 3A was reprinted with permission from https://pubs.acs.org/doi/10.1021/bm5010355, Copyright 2014 American Chemical Society. This content is not subjected to CC-BY 4.0. Permission requests related to the material excerpted should be directed to the ACS. […] Scale bar is 200 nm.
Figure S1. Cell viability of HeLa cells treated with different compounds.
S4. TEM sample preparation
400-mesh copper grids coated with continuous thick carbon film (~35 nm) were glow discharged, on which 3 μL of samples were placed. After washed with ddH2O and uranyl acetate (UA), the sample-loaded grids were stained with UA. The residual UA was removed by filter paper and then air-dried.

[2] = Circular dichroism of assemblies before and after ALP; format: physicochemical; conditions: circular dichroism before and after ALP (Figure S34)
Description: In addition to the TEM images, we used circular dichroism (CD) to reveal the secondary structures of the assemblies before and after enzymatic action.

[3] = parameters: method as in PMID 25230147; conditions: TEM, ALP 0.5 U/mL, PBS buffer pH 7.4; cited from earlier work

Question: Which results are given for `Cn1cc(NC(=O)c2cc(N)cn2C)cc1C(=O)NCC(=O)NCC(=O)NCC(=O)N[C@H](Cc1ccccc1)C(=O)N[C@H](Cc1ccccc1)C(=O)N[C@H](COP(=O)(O)O)C(=O)O` [4a] (X1-[X2]GGG[dF][dF][d(pS)]-OH)?
Answer: Cell viability of HeLa cells (HeLa cells; MTT, 200 μM, 24 h, 37 °C, absorbance 595 nm, relative to untreated cells, n = 3 wells): 69.2%; Cell viability of HeLa cells (HeLa cells; MTT, 400 μM, day 1, n = 3 wells): 72.3%; Inhibition of HeLa cell proliferation (in words) (HeLa cells; MTT, 20 to 400 μM, day 2 and 3): largely vanishes; Change of morphology of the assemblies after ALP ([1]; 1 U/mL ALP, 24 h): little change in the morphology; Morphology of the assemblies before ALP [1]: networks of nanoparticles; Change of CD signal upon ALP treatment [2]: merely slight changes

Question: With `Cn1cc(N)cc1C(=O)NCC(=O)NCC(=O)NCC(=O)N[C@H](Cc1ccccc1)C(=O)N[C@H](Cc1ccccc1)C(=O)N[C@H](Cc1ccc(OP(=O)(O)O)cc1)C(=O)O` [2f, Py-GGGffpy] (X1-GGG[dF][dF][d(pY)]-OH) as the molecule, how does the “Cell viability of HeLa cells” value (HeLa cells; 24 h, 200 μM) read?
Answer: 92.8%

Question: For `Cn1cc(NC(=O)c2cc(NC(=O)CNC(=N)N)cn2C)cc1C(=O)NCC(=O)NCC(=O)NCC(=O)N[C@H](Cc1ccccc1)C(=O)N[C@H](Cc1ccccc1)C(=O)N[C@H](Cc1ccc(OP(=O)(O)O)cc1)C(=O)O` [10b] (Guanidinoacetyl-[X2][X2]GGG[dF][dF][d(pY)]-OH), which “Cell viability of HeLa cells” value (HeLa cells; 24 h, 200 μM) is on record?
Answer: about 70%

Question: Which “Cell viability of HeLa cells” value (HeLa cells; 24 h, 200 μM) does the source give for `Cn1cc(NC(=O)OC(C)(C)C)cc1C(=O)Nc1cc(C(=O)N[C@H](Cc2ccccc2)C(=O)N[C@H](Cc2ccccc2)C(=O)N[C@H](Cc2ccc(OP(=O)(O)O)cc2)C(=O)O)n(C)c1` [compound 9] here?
Answer: about 70%

Question: With `Cn1cc(NC(=O)CNC(=N)N)cc1C(=O)NCC(=O)NCC(=O)NCC(=O)N[C@H](Cc1ccccc1)C(=O)N[C@H](Cc1ccccc1)C(=O)N[C@H](Cc1ccc(OP(=O)(O)O)cc1)C(=O)O` [10a] (Guanidinoacetyl-[X2]GGG[dF][dF][d(pY)]-OH) as the molecule, how does the “Cell viability of HeLa cells” value (HeLa cells; 24 h, 200 μM) read?
Answer: about 70%

Question: For `Cn1cc(N)cc1C(=O)Nc1cc(C(=O)Nc2cc(C(=O)N[C@H](Cc3ccccc3)C(=O)N[C@H](Cc3ccccc3)C(=O)N[C@H](Cc3ccc(OP(=O)(O)O)cc3)C(=O)O)n(C)c2)n(C)c1` [2b], which “Cell viability of HeLa cells” value (HeLa cells; 24 h, 200 μM) is on record?
Answer: 142.6%

Question: With `Cn1cc(NC(=O)c2cc(NC(=O)c3cc(N)cn3C)cn2C)cc1C(=O)NCC(=O)NCC(=O)NCC(=O)N[C@@H](Cc1ccccc1)C(=O)N[C@@H](Cc1ccccc1)C(=O)N[C@@H](Cc1ccc(OP(=O)(O)O)cc1)C(=O)O` [3b] (X1-[X2][X2]GGGFF[pY]-OH) as the molecule, how does the “Cell viability of HeLa cells” value (HeLa cells; 24 h, 200 μM) read?
Answer: 97.2%

Question: Which “Cell viability of HeLa cells” value (HeLa cells; 24 h, 200 μM) does the source give for `Cn1cc(NC(=O)c2cc(N)cn2C)cc1C(=O)NCC(=O)NCC(=O)NCC(=O)N[C@@H](Cc1ccccc1)C(=O)N[C@@H](Cc1ccccc1)C(=O)N[C@@H](Cc1ccc(OP(=O)(O)O)cc1)C(=O)O` [3a] (X1-[X2]GGGFF[pY]-OH) here?
Answer: 86.0%

Question: With `O=C(Cc1ccc2ccccc2c1)N[C@H](Cc1ccccc1)C(=O)N[C@H](Cc1ccccc1)C(=O)N[C@H](Cc1ccc(OP(=O)(O)O)cc1)C(=O)O` [compound 1, Nap-ffpy, reference compound] as the molecule, how does the “Inhibition / compatibility with HeLa cells (in words)” value (HeLa cells; 400 μM) read?
Answer: significantly inhibits

Question: And the “Inhibition of HeLa cell proliferation (in words)” value (HeLa cells; MTT, 200 μM, day 3)?
Answer: begins to reduce cell viability

Question: And the “Inhibition of HeLa cell proliferation (in words)” value (HeLa cells; MTT, concentrations lower than 100 μM, over 3 days)?
Answer: hardly inhibits

Question: What about the “Change of CD signal upon ALP treatment” value [2] of the same molecule?
Answer: significant change

Question: And the “Change of morphology of the assemblies after ALP” value [3]?
Answer: morphological transition from nanoparticles of 1 to networks of nanofibers
